How the values were obtained:
Format in all cases: cell-based
[1] = system: microorganism of Delvotest® MCS test medium; test: Production scale Delvotest MCS microbiological inhibition test, sensitivity for different antibiotics (Example 4)
Protocol: Two series of test systems were prepared on production scale. The first series is a commercially available Delvotest® MCS and the second series is as the first with Bromocresol Purple replaced with Bromothymol Blue (160 mg·l^−1). The sensitivity for different antibiotics was determined reading the test at the moment at which an antibiotic-free control changed color. The results are in the Table below (sensitivity values in ppb).

[2] = system: microorganism of Delvotest® MCS test medium; test: Delvotest MCS microbial inhibition test, sensitivity for different antibiotics, plate test or tube test (Example 2)
Protocol: […] The sensitivity for different antibiotics was determined by investigating two sets of six experiments using either a plate test or a tube test system. The sensitivity was determined by reading the test at the moment at which an antibiotic-free control changed color.

[3] = system: microorganism of Delvotest® MCS test medium; test: Delvotest MCS type test systems with equal indicator concentration, sensitivity for penicillin G (Example 3)
Protocol: Two test systems were prepared. The first system differs only from a commercially available Delvotest® MCS in that the concentration of Bromocresol Purple is 160 mg·l^−1, and the second series is as the first with Bromocresol Purple replaced with Bromothymol Blue (160 mg·l^−1). The sensitivity for penicillin G was determined reading the test at the moment at which an antibiotic-free control changed color. From the results as shown in the Table below (sensitivity values in ppb) it can be seen that the sensitivity of Bromothymol Blue is better then that of Bromocresol Purple at the same concentrations of indicator.

[4] = system: microorganism of Delvotest® MCS test medium; test: Delvotest MCS microbial inhibition test, sensitivity for penicillin G (Example 1)
Protocol: Commercially available Delvotest® MCS, prepared according to the methods described in EP 0005891, was adapted by the replacement of the indicator Bromocresol Purple by Bromothymol Blue (160 mg·l^−1). The sensitivity for penicillin G was determined by investigating samples containing different concentrations of penicillin G in different test systems. The results are summarized in the Table below (sensitivity values in ppb).

[5] = indicator Bromocresol Purple, Batch #1, three weeks after production
[6] = indicator Bromothymol Blue (160 mg·l^−1), Batch #1, three weeks after production
[7] = indicator Bromocresol Purple (BP), experiment # 0
[8] = indicator Bromothymol Blue (160 mg·l^−1), plate test, experiment # 1
[9] = indicator Bromothymol Blue (160 mg·l^−1), plate test, experiment # 2
[10] = indicator Bromothymol Blue (160 mg·l^−1), plate test, experiment # 3
[11] = indicator Bromothymol Blue (160 mg·l^−1), plate test, experiment # 4
[12] = indicator Bromothymol Blue (160 mg·l^−1), plate test, experiment # 5
[13] = indicator Bromothymol Blue (160 mg·l^−1), plate test, experiment # 6
[14] = indicator Bromothymol Blue (160 mg·l^−1), tube test, experiment # 7
[15] = indicator Bromothymol Blue (160 mg·l^−1), tube test, experiment # 8
[16] = indicator Bromothymol Blue (160 mg·l^−1), tube test, experiment # 9
[17] = indicator Bromothymol Blue (160 mg·l^−1), tube test, experiment # 10
[18] = indicator Bromothymol Blue (160 mg·l^−1), tube test, experiment # 11
[19] = indicator Bromothymol Blue (160 mg·l^−1), tube test, experiment # 12

With Neomycin the sensitivity [1, 5] was 400 ppb, the sensitivity [1, 6] was 200 ppb and the sensitivity [2, 7] was 600 ppb. The sensitivity [2, 8] was 100 ppb, the sensitivity [2, 9] was 100 ppb and the sensitivity [2, 10] was 100 ppb. It also gave a sensitivity [2, 11] of 100 ppb, a sensitivity [2, 12] of 100 ppb and a sensitivity [2, 13] of 100 ppb. It also gave a sensitivity [2, 14] of 200 ppb, a sensitivity [2, 15] of 200 ppb and a sensitivity [2, 16] of 200 ppb. The sensitivity [2, 17] was 200 ppb, the sensitivity [2, 18] was 200 ppb and the sensitivity [2, 19] was 200 ppb.
`Cc1onc(-c2ccccc2Cl)c1C(=O)N[C@@H]1C(=O)N2[C@@H]1SC(C)(C)[C@@H]2C(=O)O` [Cloxacillin] was tested, and the sensitivity [1, 5] was 40 ppb, the sensitivity [1, 6] was 20 ppb and the sensitivity [2, 7] was 40 ppb. The sensitivity [2, 8] was 10 ppb, the sensitivity [2, 9] was 10 ppb and the sensitivity [2, 10] was 10 ppb. For the same compound, the sensitivity [2, 11] was 10 ppb, the sensitivity [2, 12] was 10 ppb and the sensitivity [2, 13] was 10 ppb. The sensitivity [2, 14] was 20 ppb, the sensitivity [2, 15] was 20 ppb and the sensitivity [2, 16] was 20 ppb. For the same compound, the sensitivity [2, 17] was 20 ppb, the sensitivity [2, 18] was 20 ppb and the sensitivity [2, 19] was 20 ppb.
`CC1(C)S[C@@H]2[C@H](NC(=O)Cc3ccccc3)C(=O)N2[C@H]1C(=O)O` [Penicillin G] showed a sensitivity ([3]; indicator Bromocresol Purple (160 mg·l^−1)) of 3 ppb, a sensitivity ([3]; indicator Bromothymol Blue (160 mg·l^−1)) of 2 ppb and a sensitivity ([1]; indicator Bromocresol Purple, Batch #1, immediately after production) of 3 ppb. The sensitivity [1, 5] was 3 ppb, the sensitivity ([1]; indicator Bromothymol Blue (160 mg·l^−1), Batch #1, immediately after production) was 2 ppb and the sensitivity [1, 6] was 2 ppb. It also gave a sensitivity [2, 7] of 3 ppb, a sensitivity [2, 8] of 1 ppb and a sensitivity [2, 9] of 2 ppb. The sensitivity [2, 10] was 1 ppb, the sensitivity [2, 11] was 1 ppb and the sensitivity [2, 12] was 1-2 ppb. For the same compound, the sensitivity [2, 13] was 1 ppb, the sensitivity [2, 14] was 2 ppb and the sensitivity [2, 15] was 2 ppb. It also gave a sensitivity [2, 16] of 2 ppb, a sensitivity [2, 17] of 2 ppb and a sensitivity [2, 18] of 2 ppb. For the same compound, the sensitivity [2, 19] was 2 ppb, the sensitivity ([4]; indicator Bromocresol Purple, Penicillin G concentrations of 0, 1, 2, 3 and 4 ppb investigated) was 3 ppb and the sensitivity ([4]; indicator Bromocresol Purple, Penicillin G concentrations of 0, 2, 4 and 6 ppb investigated) was 4 ppb. It also gave a sensitivity ([4]; indicator Bromothymol Blue (160 mg·l^−1), Penicillin G concentrations of 0, 1, 2, 3 and 4 ppb investigated) of 2 ppb and a sensitivity ([4]; indicator Bromothymol Blue (160 mg·l^−1), Penicillin G concentrations of 0, 2, 4 and 6 ppb investigated) of 2 ppb.
`Nc1ccc(S(=O)(=O)Nc2ncccn2)cc1` [Sulfadiazine] was tested, and the “sensitivity with Bromothymol Blue in comparison with Bromocresol purple” value ([2]; comparison of the two indicators, in words) was “identical”, the sensitivity [2, 7] was 50 ppb and the sensitivity [2, 8] was 50 ppb. For the same compound, the sensitivity [2, 9] was 50 ppb, the sensitivity [2, 10] was 50 ppb and the sensitivity [2, 11] was 50 ppb. It also gave a sensitivity [2, 12] of 50 ppb, a sensitivity [2, 13] of 50 ppb and a sensitivity [2, 14] of 50 ppb. For the same compound, the sensitivity [2, 15] was 50 ppb, the sensitivity [2, 16] was 50 ppb and the sensitivity [2, 17] was 50 ppb. It also gave a sensitivity [2, 18] of 50 ppb and a sensitivity [2, 19] of 50 ppb.
Work on `CC1(C)S[C@@H]2[C@H](NC(=O)[C@H](N)c3ccc(O)cc3)C(=O)N2[C@H]1C(=O)O` [Amoxicillin] yielded a sensitivity [1, 5] of 8 ppb, a sensitivity [1, 6] of 4 ppb and a sensitivity [2, 7] of 8 ppb. It also gave a sensitivity [2, 8] of 4 ppb, a sensitivity [2, 9] of 2 ppb and a sensitivity [2, 10] of 2 ppb. For the same compound, the sensitivity [2, 11] was 2 ppb, the sensitivity [2, 12] was 2-4 ppb and the sensitivity [2, 13] was 2 ppb. For the same compound, the sensitivity [2, 14] was 4 ppb, the sensitivity [2, 15] was 4 ppb and the sensitivity [2, 16] was 4 ppb. For the same compound, the sensitivity [2, 17] was 4 ppb, the sensitivity [2, 18] was 4 ppb and the sensitivity [2, 19] was 4 ppb.
With `CC1(C)S[C@@H]2[C@H](NC(=O)[C@H](N)c3ccccc3)C(=O)N2[C@H]1C(=O)O` [Ampicillin] the sensitivity [1, 5] was 6 ppb, the sensitivity [1, 6] was 2 ppb and the sensitivity [2, 7] was 8 ppb. The sensitivity [2, 8] was 2 ppb, the sensitivity [2, 9] was 2 ppb and the sensitivity [2, 10] was 2 ppb. It also gave a sensitivity [2, 11] of 2 ppb, a sensitivity [2, 12] of 2 ppb and a sensitivity [2, 13] of 2 ppb. For the same compound, the sensitivity [2, 14] was 2 ppb, the sensitivity [2, 15] was 2 ppb and the sensitivity [2, 16] was 2 ppb. The sensitivity [2, 17] was 2 ppb, the sensitivity [2, 18] was 2 ppb and the sensitivity [2, 19] was 2 ppb.
`CC(=O)OCC1=C(C(=O)O)N2C(=O)[C@@H](NC(=O)CSc3ccncc3)[C@H]2SC1` [Cephapirin] was tested, and the sensitivity [1, 5] was 8 ppb, the sensitivity [1, 6] was 4 ppb and the sensitivity [2, 7] was 8 ppb. For the same compound, the sensitivity [2, 8] was 2 ppb, the sensitivity [2, 9] was 2 ppb and the sensitivity [2, 10] was 4 ppb. For the same compound, the sensitivity [2, 11] was 6 ppb, the sensitivity [2, 12] was 2 ppb and the sensitivity [2, 13] was 4-6 ppb. It also gave a sensitivity [2, 14] of 4 ppb, a sensitivity [2, 15] of 4 ppb and a sensitivity [2, 16] of 4 ppb. It also gave a sensitivity [2, 17] of 4 ppb, a sensitivity [2, 18] of 4 ppb and a sensitivity [2, 19] of 4 ppb.

Source: patent publication US8034580B2, “Determining presence of antibiotic in a fluid” (DSM IP Assets B.V., priority 2003, dated 2011)
